Literature values in US8765743B2, “Compounds” (Glaxosmithkline Intellectual Property Development Limited, priority 2008, dated 2014).
Where two headings read alike, the source gives them in different places.

How the values were obtained:
CK2 protein kinase = CK2 protein kinase (Homo sapiens, UniProt P68400)
Sequence of CK2 protein kinase (P68400 whole entry): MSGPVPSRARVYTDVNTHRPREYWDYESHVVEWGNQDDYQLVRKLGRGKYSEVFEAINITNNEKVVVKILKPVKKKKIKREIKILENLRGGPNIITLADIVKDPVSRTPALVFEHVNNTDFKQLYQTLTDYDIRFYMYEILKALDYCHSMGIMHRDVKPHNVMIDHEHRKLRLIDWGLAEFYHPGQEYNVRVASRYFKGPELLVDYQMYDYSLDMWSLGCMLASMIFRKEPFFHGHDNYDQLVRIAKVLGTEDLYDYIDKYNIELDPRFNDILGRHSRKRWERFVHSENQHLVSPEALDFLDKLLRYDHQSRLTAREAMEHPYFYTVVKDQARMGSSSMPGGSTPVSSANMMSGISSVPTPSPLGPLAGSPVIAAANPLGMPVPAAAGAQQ

Row | Compound | IC50 (CK2 protein kinase) [µM] | IC50 (Class I PI3-kinases; Fruman et al. 1998, read-out: IC50 values against each of these PI3-kinases) [µM] | IC50 (Class I PI3-kinases; read-out: IC50 values against each of the various Class I PI3-kinases) [µM]
1 | O=c1cc(N2CCOCC2)oc2c(-c3ccccc3)cccc12 [LY294002] | 5 to 10 | 15 to 20 | 
2 | wortmannin |  |  | 0.001 to 0.01
